Target: FGFR2 (Homo sapiens (Human), UniProt P21802)
Test: FGFR2 Biochemical Caliper Assay
Description: Compounds of the present invention were also tested in a FGFR2 Biochemical Caliper Assay. Compounds were prepared in 10 mM DMSO solution and serially diluted into 11 concentrations by 3-fold dilution. […] 5 uL of ATP solution (100 uM) was added to start the reaction and the plate was incubated for 90 minutes, then 70 uL of stopping buffer (0.5M EDTA) was added to terminate the reaction. Each well was analyzed using EZ reader.

Sequence of FGFR2 (P21802 22-821): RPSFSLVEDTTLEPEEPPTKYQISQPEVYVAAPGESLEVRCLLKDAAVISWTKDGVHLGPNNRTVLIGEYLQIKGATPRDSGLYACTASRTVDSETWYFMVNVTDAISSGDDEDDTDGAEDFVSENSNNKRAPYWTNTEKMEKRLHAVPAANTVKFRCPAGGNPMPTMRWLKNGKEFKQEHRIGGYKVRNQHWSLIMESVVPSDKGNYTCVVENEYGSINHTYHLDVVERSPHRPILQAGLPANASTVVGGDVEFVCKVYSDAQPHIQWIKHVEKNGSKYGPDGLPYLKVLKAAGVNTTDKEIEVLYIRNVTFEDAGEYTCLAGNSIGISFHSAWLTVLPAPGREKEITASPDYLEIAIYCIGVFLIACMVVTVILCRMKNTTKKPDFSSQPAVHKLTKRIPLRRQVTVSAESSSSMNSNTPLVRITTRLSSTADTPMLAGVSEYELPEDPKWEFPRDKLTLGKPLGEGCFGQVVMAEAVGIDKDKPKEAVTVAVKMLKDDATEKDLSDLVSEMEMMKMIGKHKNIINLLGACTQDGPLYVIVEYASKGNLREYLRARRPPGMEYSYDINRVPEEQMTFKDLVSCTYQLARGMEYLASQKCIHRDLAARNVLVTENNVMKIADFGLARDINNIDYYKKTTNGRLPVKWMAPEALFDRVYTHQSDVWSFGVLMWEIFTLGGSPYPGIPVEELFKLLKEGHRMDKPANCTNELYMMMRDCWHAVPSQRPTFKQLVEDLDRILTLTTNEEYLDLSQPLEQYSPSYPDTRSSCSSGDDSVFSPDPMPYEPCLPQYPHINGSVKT

Row | Structure (SMILES) | IC50 [nM]
1 | C=CC(=O)Nc1ccc(-c2c(-c3ccc(Nc4ncccn4)cc3)c3c(N)ncnc3n2C)cc1 [Example 58] | < 100
2 | C=C(C)C(=O)Nc1ccc(-c2c(-c3ccc(Nc4ncccn4)cc3)c3c(N)ncnc3n2C)cc1 [Example 59] | 100 to 250
3 | C=CC(=O)Nc1ccc(-c2c(-c3ccc(N(C)c4ncccn4)cc3)c3c(N)ncnc3n2C)cc1 [Example 61] | < 100
4 | C=C(C)C(=O)Nc1ccc(-c2c(-c3ccc(N(C)c4ncccn4)cc3)c3c(N)ncnc3n2C)cc1 [Example 62] | 1000 to 100000
5 | CCC(=O)Nc1ccc(-c2c(-c3ccc(Oc4ncccn4)cc3)c3c(N)ncnc3n2C)cc1 [Example 63] | 1000 to 100000
6 | C=C(C)C(=O)Nc1ccc(-c2c(-c3ccc(Oc4ncc(CO)cn4)cc3)c3c(N)ncnc3n2C)cc1 [Example 64] | 1000 to 100000
7 | C=C(C)C(=O)Nc1ccc(-c2c(-c3ccc(Oc4ncc(CO)cn4)c(OC)c3)c3c(N)ncnc3n2C)cc1 [Example 65] | 1000 to 100000
8 | CCC(=O)Nc1ccc(-c2c(-c3ccc(Oc4cccc(C)n4)c(OC)c3)c3c(N)ncnc3n2C)cc1 [Example 66] | 1000 to 100000
9 | CCC(=O)Nc1ccc(-c2c(-c3ccc(Oc4ccccn4)c(OC)c3)c3c(N)ncnc3n2C)cc1 [Example 67] | 1000 to 100000
10 | C=CC(=O)Nc1ccc(-c2c(-c3ccc(Sc4ncccn4)cc3)c3c(N)ncnc3n2C)cc1 [Example 68] | < 100
11 | C=CC(=O)Nc1ccc(-c2c(-c3ccc(Oc4ncccn4)c(CO)c3)c3c(N)ncnc3n2C)cc1 [Example 71] | 250 to 1000
12 | C/C=C/C(=O)Nc1ccc(-c2c(-c3cccc(OC)c3)c3c(N)ncnc3n2C)cc1 [Example 72] | 250 to 1000
13 | CC#CC(=O)Nc1ccc(-c2c(-c3cccc(OC)c3)c3c(N)ncnc3n2C)cc1 [Example 73] | 100 to 250
14 | C=CC(=O)Nc1ccc(-c2c(C3=CCN(C(=O)C(F)(F)F)CC3)c3c(N)ncnc3n2C)cc1 [Example 74] | 250 to 1000
15 | C=CC(=O)Nc1ccc(-c2c(C3=CCNCC3)c3c(N)ncnc3n2C)cc1 [Example 75] | 250 to 1000
16 | C=CC(=O)Nc1ccc(-c2c(-c3ccccc3)c3c(N)ncnc3n2C)cc1 [Example 76] | 100 to 250
17 | C=C(C)C(=O)Nc1ccc(-c2c(-c3ccc(Oc4cccc(C)n4)cc3)c3c(N)ncnc3n2CCN2CCOCC2)cc1 [Example 79] | 100 to 250
18 | C=C(C)C(=O)Nc1ccc(-c2c(-c3ccc(Oc4cccc(C)n4)cc3)c3c(N)ncnc3n2CCN(C)C)cc1 [Example 80] | 100 to 250
19 | C=CC(=O)Nc1ccc(-c2c(-c3ccc(C(=O)c4ccccc4C)c(OC)c3)c3c(N)ncnc3n2C)cc1 [Example 81] | < 100
20 | C=CC(=O)Nc1ccc(-c2c(-c3ccc(Sc4ncccn4)c(OC)c3)c3c(N)ncnc3n2C)cc1 [Example 82] | < 100
21 | CC#CC(=O)Nc1ccc(-c2c(-c3ccc(Oc4ncccn4)cc3)c3c(N)ncnc3n2C)cc1 [Example 84] | < 100
22 | C=C(C)C(=O)Nc1ccc(-c2c(-c3ccc(S(=O)(=O)N4CCCC4)cc3)c3c(N)ncnc3n2C)cc1 [Example 85] | 100 to 250
23 | C=CC(=O)Nc1ccc(-c2c(-c3ccc(Oc4ncc(N)cn4)c(OC)c3)c3c(N)ncnc3n2C)cc1 [Example 87] | < 100
24 | C=C(C)C(=O)Nc1ccc(-c2c(-c3ccc(Oc4cccc(C)n4)cc3)c3c(N)ncnc3n2C2CCOCC2)cc1 [Example 88] | 100 to 250

Row | Structure (SMILES) | IC50 [nM]
25 | C=C(C)C(=O)Nc1ccc(-c2c(-c3ccc(Oc4cccc(C)n4)cc3)c3c(N)ncnc3n2CCN2CCN(C)CC2)cc1 [Example 89] | < 100
26 | C=C(C)C(=O)Nc1ccc(-c2c(-c3ccc(Oc4cnc(C)cn4)c(F)c3)c3c(N)ncnc3n2C)cc1 [Example 92] | 1000 to 100000
27 | C=C(C)C(=O)Nc1ccc(-c2c(-c3ccc(C(O)c4ncccn4)c(OC)c3)c3c(N)ncnc3n2C)cc1 (centres unmarked) [Example 93] | 250 to 1000
28 | C=C(C)C(=O)Nc1ccc(-c2c(-c3ccc(Oc4ccc(Cl)cn4)cc3)c3c(N)ncnc3n2C)cc1 [Example 97] | 250 to 1000
29 | C=CC(=O)Nc1ccc(-c2c(C3CCN(C)CC3)c3c(N)ncnc3n2C)cc1 [Example 99] | 1000 to 100000
30 | C=C(C)C(=O)Nc1ccc(-c2c(-c3ccc(Oc4ncc(Cl)cn4)c(OC)c3)c3c(N)ncnc3n2C)cc1 [Example 102] | 100 to 250
31 | C=CC(=O)Nc1ccc(-c2c(C3CCN(C(=O)CNC(=O)NC)CC3)c3c(N)ncnc3n2C)cc1 [Example 104] | 1000 to 100000
32 | C=CC(=O)Nc1ccc(-c2c(C3CCN(C(=O)C(C)CCNC)CC3)c3c(N)ncnc3n2C)cc1 (centres unmarked) [Example 105] | 250 to 1000
33 | C=C(C)C(=O)Nc1ccc(-c2c(-c3ccc(Cc4ncccn4)c(OC)c3)c3c(N)ncnc3n2C)cc1 [Example 106] | 1000 to 100000
34 | C=C(C)C(=O)Nc1ccc(-c2c(-c3cc(F)c(Oc4ccccn4)c(F)c3)c3c(N)ncnc3n2C)cc1 [Example 107] | 250 to 1000
35 | C=C(C)C(=O)Nc1ccc(-c2c(-c3ccc(Oc4ccc(C)cn4)c(O)c3)c3c(N)ncnc3n2C)cc1 [Example 108] | 1000 to 100000
36 | C=C(C)C(=O)Nc1ccc(-c2c(-c3ccc(Oc4ncc(F)cn4)c(C)c3)c3c(N)ncnc3n2C)cc1 [Example 109] | 100 to 250
37 | C=C(C)C(=O)Nc1ccc(-c2c(-c3ccc(Oc4ccc(F)cn4)c(O)c3)c3c(N)ncnc3n2C)cc1 [Example 111] | 1000 to 100000
38 | C=C(C)C(=O)Nc1ccc(-c2c(-c3ccc(Oc4ccc(F)nc4)c(O)c3)c3c(N)ncnc3n2C)cc1 [Example 112] | 1000 to 100000
39 | C=C(C)C(=O)Nc1ccc(-c2c(-c3ccc(Oc4ncc(Cl)cn4)c(F)c3)c3c(N)ncnc3n2C)cc1 [Example 115] | 250 to 1000
40 | C=C(C)C(=O)Nc1ccc(-c2c(-c3cc(F)c(Oc4cnccn4)c(F)c3)c3c(N)ncnc3n2C)cc1 [Example 118] | 1000 to 100000
41 | C=C(C)C(=O)Nc1ccc(-c2c(-c3ccc(Oc4ccc(Cl)cn4)c(O)c3)c3c(N)ncnc3n2C)cc1 [Example 119] | 1000 to 100000
42 | C=C(C)C(=O)Nc1ccc(-c2c(-c3ccc(Oc4ccc(Cl)c(C)n4)cc3)c3c(N)ncnc3n2C)cc1 [Example 122] | 250 to 1000
43 | C=C(C)C(=O)Nc1ccc(-c2c(-c3ccc(OCC(=O)O)cc3)c3c(N)ncnc3n2C)cc1 [Example 124] | 1000 to 100000
44 | C=C(C)C(=O)Nc1ccc(-c2c(-c3ccc4c(c3)CC(=O)N4)c3c(N)ncnc3n2C)cc1 [Example 125] | 1000 to 100000
45 | C=C(C)C(=O)Nc1ccc(-c2c(-c3cnn(Cc4cccnc4)c3)c3c(N)ncnc3n2C)cc1 [Example 126] | 1000 to 100000
46 | C=C(C)C(=O)Nc1ccc(-c2c(-c3cc(N)c(Oc4ccccn4)c(F)c3)c3c(N)ncnc3n2C)cc1 [Example 127] | 100 to 250
47 | C=C(C)C(=O)Nc1ccc(-c2c(-c3cc(C)c(Oc4ccccn4)c(O)c3)c3c(N)ncnc3n2C)cc1 [Example 129] | 250 to 1000
48 | C=C(C)C(=O)Nc1ccc(-c2c(-c3ccc(CC(=O)N(C)C)cc3)c3c(N)ncnc3n2C)cc1 [Example 130] | 1000 to 100000

Row | Structure (SMILES) | IC50 [nM]
49 | C=C(C)C(=O)Nc1ccc(-c2c(-c3ccc(N(C)C)nc3)c3c(N)ncnc3n2C)cc1 [Example 131] | 1000 to 100000
50 | C=C(C)C(=O)Nc1ccc(-c2c(-c3ccc(-c4nnn(C)n4)nc3)c3c(N)ncnc3n2C)cc1 [Example 132] | 1000 to 100000
51 | C=C(C)C(=O)Nc1ccc(-c2c(-c3ccc(OCC4CC4)cc3)c3c(N)ncnc3n2C)cc1 [Example 133] | 100 to 250
52 | C=C(C)C(=O)Nc1ccc(-c2c(-c3cncc(CO)c3)c3c(N)ncnc3n2C)cc1 [Example 134] | 1000 to 100000
53 | C=C(C)C(=O)Nc1ccc(-c2c(C3=CCCN(C(C)=O)C3)c3c(N)ncnc3n2C)cc1 [Example 136] | 1000 to 100000
54 | C=C(C)C(=O)Nc1ccc(-c2c(-c3ccc(OCc4ccccc4)nc3)c3c(N)ncnc3n2C)cc1 [Example 138] | 1000 to 100000
55 | C=C(C)C(=O)Nc1ccc(-c2c(-c3cc(OC)ncc3F)c3c(N)ncnc3n2C)cc1 [Example 139] | 1000 to 100000
56 | C=C(C)C(=O)Nc1ccc(-c2c(-c3ccc(C(=O)N4CCC(F)(F)CC4)cc3)c3c(N)ncnc3n2C)cc1 [Example 142] | 1000 to 100000
57 | C=C(C)C(=O)Nc1ccc(-c2c(-c3cc(OC)ncc3OC)c3c(N)ncnc3n2C)cc1 [Example 144] | 1000 to 100000
58 | C=C(C)C(=O)Nc1ccc(-c2c(-c3ccc(CN4CC[C@@H](O)C4)cc3)c3c(N)ncnc3n2C)cc1 [Example 146] | 1000 to 100000
59 | C=C(C)C(=O)Nc1ccc(-c2c(-c3ccc4c(c3)CCC(=O)N4)c3c(N)ncnc3n2C)cc1 [Example 147] | 1000 to 100000
60 | C=C(C)C(=O)Nc1ccc(-c2c(-c3ccc(-c4ncc[nH]4)cc3)c3c(N)ncnc3n2C)cc1 [Example 149] | 250 to 1000
61 | C=CC(=O)Nc1ccc(-c2c(-c3cnn(CC4CCNCC4)c3)c3c(N)ncnc3n2C)cc1 [Example 151] | 250 to 1000
62 | C=C(C)C(=O)Nc1ccc(-c2c(-c3ccn4ccnc4c3)c3c(N)ncnc3n2C)cc1 [Example 153] | 1000 to 100000
63 | C=C(C)C(=O)Nc1ccc(-c2c(-c3ccc(Cn4cc(C)cn4)c(F)c3)c3c(N)ncnc3n2C)cc1 [Example 158] | 1000 to 100000
64 | C=C(C)C(=O)Nc1ccc(-c2c(-c3ccc(CN4CCC(F)(F)CC4)c(F)c3)c3c(N)ncnc3n2C)cc1 [Example 159] | 1000 to 100000
65 | C=C(C)C(=O)Nc1ccc(-c2c(-c3cc(O)c(Oc4ccccn4)c(Cl)c3)c3c(N)ncnc3n2C)cc1 [Example 162] | 250 to 1000
66 | C=C(C)C(=O)Nc1ccc(-c2c(-c3cnn(C4CN(C)C4)c3)c3c(N)ncnc3n2C)cc1 [Example 163] | 1000 to 100000
67 | C=C(C)C(=O)Nc1ccc(-c2c(-c3ccc4cn(C)nc4c3)c3c(N)ncnc3n2C)cc1 [Example 164] | 100 to 250
68 | C=C(C)C(=O)Nc1ccc(-c2c(-c3ccc(-n4cc(C)cn4)nc3)c3c(N)ncnc3n2C)cc1 [Example 165] | 250 to 1000
69 | C=C(C)C(=O)Nc1ccc(-c2c(C3=CC4CCC(C3)N4)c3c(N)ncnc3n2C)cc1 (centres unmarked) [Example 168] | 100 to 250
70 | C=C(C)C(=O)Nc1ccc(-c2c(-c3ccc4c(cnn4C(C)C)c3)c3c(N)ncnc3n2C)cc1 [Example 170] | 250 to 1000
71 | C=C(C)C(=O)Nc1ccc(-c2c(-c3ccc(CN4CCN(C)CC4)cc3)c3c(N)ncnc3n2C)cc1 [Example 172] | 1000 to 100000

Reference: patent US11780845B2 (Relay Therapeutics, Inc., priority 2019, dated 2023)
